PMC5159837, “Novel inhibitors of Mycobacterium tuberculosis GuaB2 identified by a target based high-throughput phenotypic screen” (Scientific Reports, 2016)
In brackets after ≈: the same amount, converted by molar mass. Several values for one entry are separate records, joined by “and”; a condition that tells them apart may be missing. Identical values can stand only once. Like-named read-outs stand apart in the source and are kept apart here.

Tests used:
[1] = test system: M. bovis BCG pMV261; assay: microbe, parasite or virus in culture; type: cell-based; conditions: Mycobacterium tuberculosis variant bovis BCG, 168 h, read-out: pXC50 for Empty Vector (converted)
[2] = molecular target: T1, Mtb GuaB2 (Mycobacterium tuberculosis, UniProt P9WKI7); assay: Biochemical assay of GuaB2 inhibition; conditions: duplicate, mean
T1 construct: made in house
Experimental: The Mtb ortholog of the enzyme was recombinantly expressed, purified and assayed as previously described. Inhibition was determined at 0.1 mM, using 12 μg GuaB2 with the addition of 0.5% CHAPS. Each assay was normalised for DMSO concentration. Data was recorded in duplicate and analysed using Graphpad Prism 6.0.

[3] = test system: M. bovis BCG pMV261-guaB2; assay: microbe, parasite or virus in culture; type: cell-based, Mycobacterium bovis BCG; conditions: for IC50: Mycobacterium tuberculosis variant bovis BCG, BCG, 168 h, 7 days, read-out: pXC50 Mean for GuaB2 (converted)
[4] = test system: M. tuberculosis H37Rv; assay: MIC against H37Rv; type: cell-based; conditions: Mycobacterium tuberculosis
Source text: Table 1 Z’ and pXC50 values for dose response validation of GuaB2 targeting compounds.

[5] = 0.1 mM compound, 12 μg GuaB2, 0.5% CHAPS, read-out: % Biochemical Inhibition of Mtb GuaB2
[6] = 0.1 mM compound, 12 μg GuaB2, 0.5% CHAPS
[7] = read-out: % Biochemical Inhibition of Mtb GuaB2, 0.1 mM compound, 12 μg GuaB2, 0.5% CHAPS

T1 sequence (P9WKI7 whole entry, looked up): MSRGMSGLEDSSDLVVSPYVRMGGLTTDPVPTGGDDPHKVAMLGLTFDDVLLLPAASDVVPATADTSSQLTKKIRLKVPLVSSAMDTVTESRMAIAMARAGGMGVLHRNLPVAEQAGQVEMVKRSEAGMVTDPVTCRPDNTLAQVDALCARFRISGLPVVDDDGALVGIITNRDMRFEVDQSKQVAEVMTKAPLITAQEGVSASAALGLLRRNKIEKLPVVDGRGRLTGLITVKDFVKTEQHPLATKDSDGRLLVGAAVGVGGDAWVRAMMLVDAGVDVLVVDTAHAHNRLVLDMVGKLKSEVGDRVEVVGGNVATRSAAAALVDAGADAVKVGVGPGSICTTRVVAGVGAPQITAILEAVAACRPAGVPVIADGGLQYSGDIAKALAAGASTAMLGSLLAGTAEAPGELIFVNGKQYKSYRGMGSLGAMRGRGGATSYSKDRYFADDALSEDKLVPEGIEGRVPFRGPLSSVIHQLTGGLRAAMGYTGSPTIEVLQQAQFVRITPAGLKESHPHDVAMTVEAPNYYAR

Structure (SMILES)	IC50 [1] [µM]	inhibition at 100 µM [2, 5] [%]	Shift pIC50 [3]	IC50 [3] [µM]	MIC [4] [µM]	% Biochemical Inhibition of Mtb GuaB2 [2, 6]	inhibition at 100 µM [2, 7] [%]
CC1CCC(NC(=O)Nc2ccc3snnc3c2)CC1 (stereo not drawn) [JAGC_7, 1-(benzo[d][1,2,3]thiadiazol-5-yl)-3-(4-methylcyclohexyl)urea]	4.17	12.2	0.37	9.77	50 (≈ 14.5 µg/mL)		
COc1ccc(Cl)c2sc(N(CCN(C)C)C(C)=O)nc12 [JAGC_4, N-(7-chloro-4-methoxybenzo[d]thiazol-2-yl)-N-(2-(dimethylamino)ethyl)acetamide]	22.9	20.7	0.64	≥ 100	> 80		
CC(C)CCN(c1ccc(C#N)c(Cl)c1)[C@H]1CCNC1 [JAGC_5, (S)-2-chloro-4-(isopentyl(pyrrolidin-3-yl)amino)benzonitrile]	4.37	20.6	0.94	38	> 100		
CCOc1ccc(C(=O)Nc2cc(Cl)c3c(c2)CNCC3)cc1C(C)=O [JAGC_2, 3-acetyl-N-(5-chloro-1,2,3,4-tetrahydroisoquinolin-7-yl)-4-ethoxybenzamide]	8.32		0.84	57.5	> 80	26.53%	26.5
Cc1ccc([N+](=O)[O-])cc1NC(=O)Nc1cccc(Cl)c1 [DPU-2, reference compound]		44.6					
NNC(=O)c1ccncc1 [INH, isoniazid, reference compound]						−9% and −8.88%	
COC(=O)c1c(NC(=O)N2CCNCC2)sc2c1CC(C)(C)OC2 [JAGC_3, methyl 5,5-dimethyl-2-(piperazine-1-carboxamido)-4,7-dihydro-5H-thieno[2,3-c]pyran-3-carboxylate]	10.2	21.8	0.99	≥ 100	> 80		
CC(=O)Nc1ccc(-c2ccc3ncc(N4CCN(C)CC4)nc3c2)cn1 [JAGC_1, N-(5-(3-(4-methylpiperazin-1-yl)quinoxalin-6-yl)pyridin-2-yl)acetamide]	8.91	23.1	1.05	≥ 100	> 80		
Clc1cc2ccccc2c(N2CCNCC2)n1 [JAGC_6, 3-chloro-1-(piperazin-1-yl)isoquinoline]	3.8		1.07	44.7	> 80	15.44%	12.3
